3 molecules from PMC9696974 (Pharmaceutics, 2022) can be followed below.

The structures appear in SMILES notation.

The test system of data set [1] is poly dAdT-poly dAdT (AT-DNA, p(dAdT)2) (DNA, polymer) AT. The data set can be described thus: fluorimetric titration, Scatchard. Particulars: Na+ (sodium cacodylate, I = 0.05 M); pH 7.0, 25 °C; Scatchard n fixed at 0.2 or 0.3; per base.
Data set [2] has as its target GC-DNA (poly dGdC-poly dGdC). Put plainly: Fluorimetric titration with GC-DNA, Scatchard equation. It is filed as binding. The following applies: pH 7, sodium cacodylate buffer, I = 0.05 M. On the procedure: (§1) Experiments were conducted in an aqueous buffer solution (pH = 7.0 or pH= 5.0, I = 0.05 M, sodium cacodylate buffer). For the UV-Vis spectra were used Varian Cary 100 Bio spectrometer, for fluorescence spectra we used the Varian Cary Eclipse fluorimeter and for CD spectra we used the JASCO J815 spectropolarimeter, all conducted at 25.0 °C using appropriate quartz cuvettes (path length: 1 cm).
(§2) Polynucleotides were purchased as noted: poly dAdT-poly dAdT, poly dGdC-poly dGdC, poly A-poly U (ds-RNA), (Sigma-Aldrich, Schnelldorf, Germany), calf thymus (ct)-DNA (Sigma-Aldrich, Schnelldorf, Germany) and dissolved in sodium cacodylate buffer, I = 0.05 M, pH = 7.0. The ct-DNA was sonicated and filtered through a 0.45 µm filter to obtain mostly short (ca. 100 base pairs) rod-like B-helical DNA fragments. The concentration of DNA or RNA was determined spectroscopically as the c(nucleobase) using producer-provided molar extinction coefficients.
(§3) Fortunately, strong emission from the compounds studied allowed fluorimetric titrations to be performed at much lower concentrations of the dyes (c = 5 × 10^−8 M), thus preventing precipitation of non-methylated 1 or 2, and allowing for the collection of numerous data points at excess of DNA/RNA binding sites over c(dye). […]

The subject of data set [3] is poly A-poly U (AU-RNA, pApU) (RNA, polymer) A/U. Put plainly: fluorimetric titration, Scatchard. The following applies: Na+ (sodium cacodylate, I = 0.05 M); pH 7.0, 25 °C; Scatchard n fixed at 0.2 or 0.3; per base.
For data set [4], the target named is AU-RNA (poly A-poly U). The data set can be described thus: Fluorimetric titration with AU-RNA, Scatchard equation. It is filed as binding. Particulars: pH 7, sodium cacodylate buffer, I = 0.05 M. On the procedure: as §1, §2, §3
The test system of data set [5] is WI-38 cells. Put plainly: MTT cell viability assay, WI-38, with or without UV light. It is filed as cell-based, human. The following applies: WI-38, 10 μM and 1 μM, without UV. On the procedure:
Cells. Commercially available from American Type Culture Collection (ATCC), human epithelial lung adenocarcinoma A549 (ATCC® CCL-185™) and human normal lung fibroblast WI-38 (ATCC® CCL-75™) were grown according to supplier’s conditions, namely in Dulbecco Modified Eagle’s Medium (DMEM, Sigma Aldrich, St. Louis, MO, USA) supplemented with 10% of fetal bovine serum (FBS, Sigma Aldrich, USA). Cells were incubated in the cell incubator (Thermo Fischer Scientific, Waltham, MA, USA) at 37 °C and 5% CO2 in a humidified atmosphere.
Cell viability assay. In order to obtain a 10 mM stock solution chemical compounds (2M, 1, and 1M) were sterilely diluted in an appropriate volume of dimethyl sulfoxide solution (DMSO, Gram-Mol, Zagreb, Croatia). Solutions were kept in the dark and stored at 4 °C. The cytotoxic effects of each compound were assayed on A549 and WI-38 cells. […] Briefly, cells were seeded in 96-well tissue culture plates and 24 h later treated with 2M, 1, or 1M in the concentration range of 10–0.1 μM. Cells treated with the same dilutions of DMSO represented the control, while cells treated only with DMEM (10% FBS) represented the negative control. […] The resulting MTT-formazan products were dissolved using DMSO, and their absorbance at 600 nm was measured using a microplate reader. […]

The test system of data set [6] is A549 cells. The data set can be described thus: Detection of total ROS (DCF, flow cytometry). Format: cell-based, human. The following applies: A549, 10 µM. On the procedure:
Detection of total ROS. For detecting total ROS, A549 cells were seeded in 12-well tissue culture plates and 24 h after were treated with a 10 μM working solution of the respective compound and incubated for 90 min (37 °C, 5% CO2), allowing the compound to enter to cells. The same dilution of DMSO served as a control, while H2O2 (0.002%) was used as a positive control. One plate was irradiated with UV light (350 nm) for 5 min, and was analysed immediately after UV exposure. The plate that was not irradiated with UV light served as the control, and was incubated in the cell incubator (37°C, 5% CO2) during the whole experiment. Subsequently, cells were washed with PBS, trypsinised, resuspended with cold PBS supplemented with 10% FBS and centrifuged for 5 min (RT, 1100 g). Cell pellets were resuspended and washed again, but this time with cold PBS supplemented with 1% FBS and centrifuged for 5 min (RT, 1100 g). After the second washing, cell pellets were resuspended in 5 μM 2′,7′–dichloro-fluorescin diacetate (H2DCFDA, Sigma, USA) which is converted to dichlorofluorescein (DCF) in contact with ROS. Unstained cells were resuspended in PBS supplemented with 1% FBS. Cells were then analysed by flow cytometry using FACSCalibur (BD Biosciences, San Jose, CA, USA).
In general terms: A flow cytometer gives signals particle by particle.

Data set [7] relates to poly A-poly U (AU-RNA, pApU) (RNA, polymer) A/U. The data set can be described thus: UV thermal denaturation at 260 nm. The following applies: Na+ (sodium cacodylate, I = 50 mM); pH 7.0; r = [compound]/[polynucleotide] = 0.2; error ± 0.5 °C; per base.
In data set [8] the test system is ct-DNA. The data set can be described thus: Thermal denaturation of ct-DNA (∆Tm). The following applies: I = 50 mM. It is filed as binding, calf. On the procedure:
as §1, §2
Thermal denaturation of ds-DNA, ds-RNA and their complexes with studied compounds was performed by monitoring the absorption change at 260 nm as a function of temperature. Tm values are the midpoints of the transition curves determined from the maximum of the first derivative and checked graphically by the tangent method. The ∆Tm values were calculated by subtracting the Tm of the free nucleic acid from the Tm of the complex. Every ∆Tm value here reported was the average of at least two measurements. The error in ∆Tm is ± 0.5 °C.

As for `C[n+]1ccc(-c2cc3ccc4cccc5ccc(c2)c3c45)cc1` [1M, 2-para-N-methylpyridinium pyrene], the logKs stood at 5.9 in data set [1] and 5.8 in data set [3]. In addition, in data set [2], the “Binding constant logKs GC-DNA” value came to 7.0. Moreover, the “Binding constant logKs AU-RNA” value in data set [4] is recorded as 5.8. The “Cytotoxic effect relative to A549” value in data set [5] was “somewhat more resilient”. Also, the “Intracellular ROS production” value was “immediate and strong increase in ROS production” in data set [6] (UV light 350 nm 5 min); “induced the production of intracellular ROS” in data set [6] (kept in dark). Further, the “∆Tm” value in data set [7] was 3 °C.
In the case of `C[n+]1ccc(-c2cc3ccc4cc(-c5cc[n+](C)cc5)cc5ccc(c2)c3c45)cc1` [2M], the logKs in data set [1] was 7.1; in data set [3], 8.5. The “Binding constant logKs GC-DNA” value in data set [2] is given as 9.1. In addition, the “Binding constant logKs AU-RNA” value in data set [4] is 8.5. Besides, the “Cytotoxic effect relative to A549” value in data set [5] was “somewhat more resilient”. For the same molecule, the “∆Tm ct-DNA” value in data set [8] (r = 0.2, pH 7.0, sodium cacodylate buffer) was “^d >16 °C”; in data set [8] (r = 0.3, pH 7.0, sodium cacodylate buffer), “^d >16 °C”. The “Intracellular ROS production” value in data set [6] (UV light 350 nm 5 min) is “immediate and strong increase in ROS production”. The “∆Tm” value in data set [7] came out at 4 °C.
Consider `c1cc2ccc3cc(-c4ccncc4)cc4ccc(c1)c2c34` [compound 1], for which the “∆Tm ct-DNA” value in data set [8] (r = 0.1, pH 5.0, sodium cacodylate buffer) was 0 °C; in data set [8] (r = 0.3, pH 5.0, sodium cacodylate buffer) it was 2 °C. Moreover, the “Intracellular ROS production” value in data set [6] (UV light 350 nm 5 min) was “immediate and strong increase in ROS production”.
